According to patent US5258406A, “Sulfonimidamides” (priority 1992, dated 1993):
Where two headings read alike, the source gives them in different places.

Test system: 6C3HED lymphosarcoma
Experiment: animal or person
Type: in vivo
Protocol: The compounds were tested in C3H mice bearing a 6C3HED lymphosarcoma, also known as the Gardner lymphosarcoma (GLS), and in a variety of human tumor xenografts in CD1 nu/nu mice, including CX-1, LX-1, HXGC3, and VRC5. The 6C3HED lymphosarcoma was obtained from the Division of Cancer Treatment, National […] Institute, Tumor Bank, maintained at E. G. and G. Mason Research (Worcester, Mass.). The CX-1 human colon carcinoma and the LX-1 human lung carcinoma xenografts were obtained from the National Cancer Institute. The HXGC3 and VRC5 human colon xenografts were obtained from Dr. P. J. Houghton, St. Jude Children's Hospital in Memphis (see Br. J. Cancer, 37, 213 (1978)). First passage tumor was stored in liquid nitrogen using standard techniques. The transplanted tumor was reestablished from the Tumor Bank every six months or as needed. The tumor was maintained by serial passage twice weekly in C3H mice.
In the procedure the tumor was removed from passage animals and minced into 1- to 3-mm square fragments using sterile techniques. Tumor pieces were checked for sterility using both Antibiotic Medium 1 and Brain Heart Infusion (Difco, Detroit, Mich.). Recipient mice were shaved and tumor pieces were implanted subcutaneously in the auxiliary region by trocar. Drug therapy on the appropriate schedule was initiated on the day after tumor implant for 6C3HED and after a seven (7) day delay for xenografts (or other delay as noted in Table 2). The compound being tested was mixed with 2.5% Emulphor EL620 from GAF Corporation (1:40 dilution in saline). Food and water were provided ad libitium. The drug was administered orally in 0.5 ml of 2.5% Emulphor (unless otherwise indicated). The tumor was measured the day after treatment ended with two dimensional measurements (width and length) of the tumor taken using automated digital calipers interfaced to a microcomputer. Approximate weight for the tumor was calculated using the following formula [Worzalla, J. F., et al., Invest. New Drugs, 8, 241 (1990], (tumor weight in mg)=(width in mm)^2 ×(length in mm)/2.
At least one control group of an equal number of mice was treated with the same volume of 2.5% Emulphor only. The percent inhibition was determined by subtracting the ratio of the mean tumor size of the test group relative to the control group from one and multiplying the result times 100.
The results of several experiments in mice bearing a 6C3HED lymphosarcoma (or other tumor where indicated) when the indicated compounds were administered are provided in Table 2. In Table 2, column 1 gives the Example number of the compound used, column 2 lists the dose level in mg/kg, column 3 provides the percent inhibition of tumor growth, column 4 gives the number of mice which died relative to the total number of animals in the group, column 5 gives the method of administration of the compound, and column 6 gives the dosage schedule. The protocol used with other tumors was the same as with the 6C3HED lymphosarcoma.

[1] = Mus musculus, 6C3HED, po, read-out: % inhibition of tumor growth, oral, 150 mg/kg, BIDX 8
[2] = Mus musculus, 6C3HED, po, read-out: % inhibition of tumor growth, oral, 150 mg/kg, DX 8
[3] = Mus musculus, 6C3HED, po, read-out: % inhibition of tumor growth, oral, 300 mg/kg, BIDX 8
[4] = Mus musculus, 6C3HED, po, read-out: % inhibition of tumor growth, oral, 300 mg/kg, DX 8

Row | SMILES | Tox/Tot (mice which died / total) (IP, 150 mg/kg, DX 8) | % inhibition of tumor growth (IP, 300 mg/kg, DX 8) | Tox/Tot (mice which died / total) (IP, 300 mg/kg, DX 8) | inhibition in vivo at 150 mg/kg (Mus musculus, 6C3HED, ip, read-out: % inhibition of tumor growth, IP, 150 mg/kg, DX 8) [%] | inhibition in vivo at 150 mg/kg [1] [%] | inhibition in vivo at 150 mg/kg [2] [%] | inhibition in vivo at 300 mg/kg [3] [%] | inhibition in vivo at 300 mg/kg [4] [%] | Tox/Tot (mice which died / total) (oral, 150 mg/kg, BIDX 8) | Tox/Tot (mice which died / total) (oral, 150 mg/kg, DX 8) | Tox/Tot (mice which died / total) (oral, 300 mg/kg, BIDX 8) | Tox/Tot (mice which died / total) (oral, 300 mg/kg, DX 8) | Tox/Tot (mice which died / total) (IP, 600 mg/kg, DX 8) | inhibition in vivo at 300 mg/kg (Mus musculus, 6C3HED, ip, read-out: % inhibition of tumor growth, IP, 300 mg/kg, DX 8) [%] | inhibition in vivo at 600 mg/kg (Mus musculus, 6C3HED, ip, read-out: % inhibition of tumor growth, IP, 600 mg/kg, DX 8) [%]
1 | CC(=O)NS(=O)(=NC(=O)Nc1ccc(Cl)cc1)c1ccc(C)cc1 (stereo not drawn) [Example 15] | 0/10 | TOX | 10/10 | 0 | 0 | 23 | 84 | 44 | 0/10 | 0/10 | 0/10 | 0/10 |  |  | 
2 | CC(=O)N(C)S(=O)(=NC(=O)Nc1ccc(Cl)cc1)c1ccc(C)cc1 (stereo not drawn) [Example 16, N-[[(4-chlorophenyl)amino]carbonyl]-N'-acetyl-N'-methyl-4-methylbenzenesulfonimidamide] |  |  |  |  | 98 |  | 99 |  | 1/10 |  | 1/10 |  |  |  | 
3 | CC(=O)N(C(=O)N=[S+]([O-])(c1ccc(C)cc1)N(C)C(C)=O)c1ccc(Cl)cc1 (stereo not drawn) [Example 17] |  |  |  |  | 83 |  | 96 |  | 0/10 |  | 0/10 |  |  |  | 
4 | Cc1ccc(S(=O)(=NC(=O)Nc2ccc(Cl)cc2)N(C)C)cc1 (stereo not drawn) [Example 18] |  |  | 4/8 |  |  | 45 |  | 63 |  | 0/10 |  | 0/10 | 6/8 | 93 | 99
5 | Cc1ccc(S(N)(=O)=NC(=O)N(C)c2ccc(Cl)cc2)cc1 (stereo not drawn) [Example 20] |  |  |  |  | 83 |  | 93 |  | 0/10 |  | 0/10 |  |  |  | 
6 | Cc1ccc(S(=N)(=O)NC(=O)Nc2ccc(Br)cc2)cc1 (stereo not drawn) [Example 22, N-[[(4-bromophenyl)amino]carbonyl]-4-methylbenzenesulfonimidamide] |  |  |  |  | 100 |  | 100 |  | 0/10 |  | 3/10 |  |  |  | 
